Experimental data taken from article PMC6979384, “Characterization of the plant homeodomain (PHD) reader family for their histone tail interactions” (Epigenetics & Chromatin, 2020).

Key:
Assay in all cases: Histone peptide microarray
Assay type in all cases: binding, human
Conditions in all cases: total n = 4
MORC3 (CW) = test system: MORC3 (CW)
Outline: (§1)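 Readout is array binding signal, reported as the mean and standard deviation over four replicates. Each purified GST-fused PHD domain was incubated at 0.5 μM with a library of 293 modified histone peptides.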

KDM5A (3) = test system: KDM5A (3)
Outline: as §1

PHF8 = test system: PHF8
Outline: as §1

ING3 = test system: ING3
Outline: as §1

CHD5 (PCC) = test system: CHD5 (PCC)
Outline: as §1

DPF2 (PPC2W2) = test system: DPF2 (PPC2W2)
Outline: as §1

CHD4 (PPCC) = test system: CHD4 (PPCC)
Outline: as §1

TAF3 = test system: TAF3
Outline: as §1

PHF21A = test system: PHF21A
Outline: as §1

ING1 = test system: ING1
Outline: as §1

KDM7A = test system: KDM7A
Outline: as §1

PHF2 = test system: PHF2
Outline: as §1

MLL5 = test system: MLL5
Outline: as §1

PHRF1 (RP) = test system: PHRF1 (RP)
Outline: as §1

DIDO1 = test system: DIDO1
Outline: as §1

KDM4C (TTP) = test system: KDM4C (TTP)
Outline: as §1

TRIM66 (PB) = test system: TRIM66 (PB)
Outline: as §1

KDM5A (1) = test system: KDM5A (1)
Outline: as §1

AIRE (PP) = test system: AIRE (PP)
Outline: as §1

PHF23 = test system: PHF23
Outline: as §1

PHF13 = test system: PHF13
Outline: as §1

ING2 = test system: ING2
Outline: as §1

BPTF (PB) = test system: BPTF (PB)
Outline: as §1

ING4 = test system: ING4
Outline: as §1

CHD5 (PPCC) = test system: CHD5 (PPCC)
Outline: as §1

SP140L = test system: SP140L
Outline: as §1

KDM5B (1) = test system: KDM5B (1)
Outline: as §1

KDM5B (3) = test system: KDM5B (3)
Outline: as §1

RAG2 = test system: RAG2
Outline: as §1

ING5 = test system: ING5
Outline: as §1

BAZ2B = test system: BAZ2B
Outline: as §1

[1] = sheet "Array Heatmap", GST-tagged reader, histone peptide array

H3K4me3 + K9me3: H3 1-20
Array Heatmap signal, MORC3 (CW) (MORC3 (CW); [1]): 0.5189 | Array Heatmap signal, KDM5A (3) (KDM5A (3); [1]): 0.6222 | Array Heatmap signal, PHF8 (PHF8; [1]): 0.4712 | Array Heatmap signal, ING3 (ING3; [1]): 0.5385 | Array Heatmap signal, CHD5 (PCC) (CHD5 (PCC); [1]): 0.7845 | Array Heatmap signal, DPF2 (PPC2W2) (DPF2 (PPC2W2); [1]): 0.7108 | Array Heatmap signal, CHD4 (PPCC) (CHD4 (PPCC); [1]): 0.5681 | Array Heatmap signal, TAF3 (TAF3; [1]): 0.3501 | Array Heatmap signal, PHF21A (PHF21A; [1]): 0.4927 | Array Heatmap signal, ING1 (ING1; [1]): 0.6677 | Array Heatmap signal, KDM7A (KDM7A; [1]): 0.4063 | Array Heatmap signal, PHF2 (PHF2; [1]): 0.6501 | Array Heatmap signal, MLL5 (MLL5; [1]): 0.6708 | Array Heatmap signal, PHRF1 (RP) (PHRF1 (RP); [1]): 0.5034 | Array Heatmap signal, DIDO1 (DIDO1; [1]): 0.7556 | Array Heatmap signal, KDM4C (TTP) (KDM4C (TTP); [1]): 0.5629 | Array Heatmap signal, TRIM66 (PB) (TRIM66 (PB); [1]): 0.5701 | Array Heatmap signal, KDM5A (1) (KDM5A (1); [1]): 0.4868 | Array Heatmap signal, AIRE (PP) (AIRE (PP); [1]): 0.4775 | Array Heatmap signal, PHF23 (PHF23; [1]): 0.5934 | Array Heatmap signal, PHF13 (PHF13; [1]): 0.6561 | Array Heatmap signal, ING2 (ING2; [1]): 0.7112 | Array Heatmap signal, BPTF (PB) (BPTF (PB); [1]): 0.3806 | Array Heatmap signal, ING4 (ING4; [1]): 0.4847 | Array Heatmap signal, CHD5 (PPCC) (CHD5 (PPCC); [1]): 0.5893 | Array Heatmap signal, SP140L (SP140L; [1]): 0.3795 | Array Heatmap signal, KDM5B (1) (KDM5B (1); [1]): 0.6368 | Array Heatmap signal, KDM5B (3) (KDM5B (3); [1]): 0.5506 | Array Heatmap signal, RAG2 (RAG2; [1]): 0.359 | Array Heatmap signal, ING5 (ING5; [1]): 0.4091 | Array Heatmap signal, BAZ2B (BAZ2B; [1]): 0.4905

H3K4me3 + K14ac + K18ac: H3 1-20
Array Heatmap signal (histone peptide microarray) (MORC3 (CW); GST-tagged MORC3 (CW = CW-type Zn-finger), sheet Array Heatmap, each array performed twice): 0.9877 | Array Heatmap signal (histone peptide microarray) (KDM5A (3); GST-tagged KDM5A (3), sheet Array Heatmap, each array performed twice): 0.9424 | Array Heatmap signal (histone peptide microarray) (PHF8; GST-tagged PHF8, sheet Array Heatmap, each array performed twice): 0.9943 | Array Heatmap signal (histone peptide microarray) (ING3; GST-tagged ING3, sheet Array Heatmap, each array performed twice): 1 | Array Heatmap signal (histone peptide microarray) (CHD5 (PCC); GST-tagged CHD5 (PCC = PHD + Dual Chromodomain), sheet Array Heatmap, each array performed twice): 0.8498 | Array Heatmap signal (histone peptide microarray) (DPF2 (PPC2W2); GST-tagged DPF2 (PPC2W2 = Dual PHD + C2W2-type Zn-finger), sheet Array Heatmap, each array performed twice): 0.7705 | Array Heatmap signal (histone peptide microarray) (CHD4 (PPCC); GST-tagged CHD4 (PPCC = Dual PHD + Dual Chromodomain), sheet Array Heatmap, each array performed twice): 0.5986 | Array Heatmap signal (histone peptide microarray) (TAF3; GST-tagged TAF3, sheet Array Heatmap, each array performed twice): 1 | Array Heatmap signal (histone peptide microarray) (PHF21A; GST-tagged PHF21A, sheet Array Heatmap, each array performed twice): 0.4924 | Array Heatmap signal (histone peptide microarray) (ING1; GST-tagged ING1, sheet Array Heatmap, each array performed twice): 0.9274 | Array Heatmap signal (histone peptide microarray) (KDM7A; GST-tagged KDM7A, sheet Array Heatmap, each array performed twice): 0.7919 | Array Heatmap signal (histone peptide microarray) (PHF2; GST-tagged PHF2, sheet Array Heatmap, each array performed twice): 0.829 | Array Heatmap signal (histone peptide microarray) (MLL5; GST-tagged MLL5, sheet Array Heatmap, each array performed twice): 0.9197 | Array Heatmap signal (histone peptide microarray) (PHRF1 (RP); GST-tagged PHRF1 (RP), sheet Array Heatmap, each array performed twice): 0.6285 | Array Heatmap signal (histone peptide microarray) (DIDO1; GST-tagged DIDO1, sheet Array Heatmap, each array performed twice): 0.9566 | Array Heatmap signal (histone peptide microarray) (KDM4C (TTP); GST-tagged KDM4C (TTP = Tandem Tudor domain + PHD), sheet Array Heatmap, each array performed twice): 0.868 | Array Heatmap signal (histone peptide microarray) (TRIM66 (PB); GST-tagged TRIM66 (PB = PHD + Bromodomain), sheet Array Heatmap, each array performed twice): 0.7091 | Array Heatmap signal (histone peptide microarray) (KDM5A (1); GST-tagged KDM5A (1), sheet Array Heatmap, each array performed twice): 0.5146 | Array Heatmap signal (histone peptide microarray) (AIRE (PP); GST-tagged AIRE (PP), sheet Array Heatmap, each array performed twice): 0.5611 | Array Heatmap signal (histone peptide microarray) (PHF23; GST-tagged PHF23, sheet Array Heatmap, each array performed twice): 0.9183 | Array Heatmap signal (histone peptide microarray) (PHF13; GST-tagged PHF13, sheet Array Heatmap, each array performed twice): 0.9146 | Array Heatmap signal (histone peptide microarray) (ING2; GST-tagged ING2, sheet Array Heatmap, each array performed twice): 0.908 | Array Heatmap signal (histone peptide microarray) (BPTF (PB); GST-tagged BPTF (PB = PHD + Bromodomain), sheet Array Heatmap, each array performed twice): 1 | Array Heatmap signal (histone peptide microarray) (ING4; GST-tagged ING4, sheet Array Heatmap, each array performed twice): 0.8448 | Array Heatmap signal (histone peptide microarray) (CHD5 (PPCC); GST-tagged CHD5 (PPCC = Dual PHD + Dual Chromodomain), sheet Array Heatmap, each array performed twice): 0.6153 | Array Heatmap signal (histone peptide microarray) (SP140L; GST-tagged SP140L, sheet Array Heatmap, each array performed twice): 0.3709 | Array Heatmap signal (histone peptide microarray) (KDM5B (1); GST-tagged KDM5B (1), sheet Array Heatmap, each array performed twice): 0.8317 | Array Heatmap signal (histone peptide microarray) (KDM5B (3); GST-tagged KDM5B (3), sheet Array Heatmap, each array performed twice): 0.9729 | Array Heatmap signal (histone peptide microarray) (RAG2; GST-tagged RAG2, sheet Array Heatmap, each array performed twice): 1 | Array Heatmap signal (histone peptide microarray) (ING5; GST-tagged ING5, sheet Array Heatmap, each array performed twice): 0.6681 | Array Heatmap signal (histone peptide microarray) (BAZ2B; GST-tagged BAZ2B, sheet Array Heatmap, each array performed twice): 0.6645
